Molecules are shown by their SMILES. Where only a bound is given, the exact number is not on record here.

In one assay the test system is rice blast. The assay can be described thus: microbe, parasite or virus in culture. In kind it is cell-based. To be noted: Pyricularia oryzae; for inhibition at 8.3 ppm: read-out: inhibition rate against rice blast, 8.3 ppm, in vitro; for inhibition at 25 ppm: read-out: inhibition rate against rice blast, 25 ppm, in vitro.
The next assay concerns armyworm. In words: bioactivity test against armyworm, airbrush spray. The class given is in vivo.
For another assay, the system named is corn rust. The assay can be described thus: protectant activity in vivo against corn rust. To be noted: for pest or weed control at 6.25 µg/mL: read-out: control effect against corn rust (%), 6.25 mg/L; for pest or weed control at 25 µg/mL: read-out: control effect against corn rust (%), 25 mg/L; for pest or weed control at 100 µg/mL: read-out: control effect against corn rust (%), 100 mg/L; for pest or weed control at 400 µg/mL: read-out: control effect against corn rust (%), 400 mg/L; for pest or weed control at 25 ppm: read-out: protectant activity against corn rust in vivo, 25 ppm; for pest or weed control at 400 ppm: read-out: protectant activity against corn rust in vivo, 400 ppm.

A further assay concerns Diamond back moth. The assay can be described thus: insecticidal activity against diamond back moth, airbrush spray. The class given is in vivo. The following applies: 600 ppm, mortality after 72 hrs. The gist of the method: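 Airbrush leaf-disc spray test: both faces of 2 cm cabbage discs received 0.5 ml of test solution at 0.7 kg/cm^2. Solutions were made in acetone:methanol (1:1) and brought to concentration with 0.1% Tween 80 in water. Ten second-instar larvae per disc, triplicates, were held at 25° C and 60˜70% R.H., with mortality recorded at 72 hrs.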

Assay [1] concerns Green peach aphids (Myzus Persicae Sulzer). In words: bioactivity test against green peach aphid, airbrush foliar spray. The class given is in vivo. The following applies: for Insecticidal activity against peach aphid (%): contrastive test. In short, it runs like this: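 Aphids (15-30 per cabbage leaf disc) on moist filter paper were airbrush-sprayed at 10 psi, 0.5 mL, with compound from acetone:methanol (1:1) diluted in water with 0.1% tween 80. Held at 25±1 C, 60±5% RH; survivors counted after 48 hrs to give death rates.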

For a further assay, the system named is carmine spider mite. In words: bioactivity test against carmine spider mite, airbrush spray. In kind it is in vivo. In short, it runs like this: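 Broadbean seedlings infested with adult mites were sprayed with compound (acetone/methanol stock diluted in 0.1% Tween 80 water) by airbrush at 0.7 kg/cm^2, 0.5 ml. Three replicates were run. Mortality was scored after 72 hrs.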

The next assay relates to wheat powdery mildew. In words: protectant activity in vivo against wheat powdery mildew. To be noted: for pest or weed control at 400 ppm: read-out: protectant activity against wheat powdery mildew in vivo, 400 ppm.
The test system of a further assay is cucumber downy mildew. The assay can be described thus: protectant activity in vivo against cucumber downy mildew. To be noted: for pest or weed control at 50 ppm: read-out: protectant activity against cucumber downy mildew in vivo, 50 ppm; for pest or weed control at 400 ppm: read-out: protectant activity against cucumber downy mildew in vivo, 400 ppm.
Where [2] appears, read: Zea mays, 168 h, protectant activity.
Setting [3] is: 10 ppm, death rate after 48 hrs.
Where [4] appears, read: Myzus persicae, foliar, 48 h, 100 ppm, death rate after 48 hrs.
Where [5] appears, read: Myzus persicae, foliar, 48 h, 600 ppm, death rate after 48 hrs.
[6] abbreviates: 100 ppm, mortality after 72 hrs.
Where [7] appears, read: 600 ppm, mortality after 72 hrs.
Setting [8] is: Tetranychus cinnabarinus, 72 h, 600 ppm, mortality after 72 hrs.

Consider `Cc1c(Cl)c(NCCc2ccc(Oc3ccc(C(F)(F)F)cn3)cc2)nc[n+]1CC(=O)c1ccc(Cl)cc1` [CK49, reference compound], for which, in the assay with rice blast, the inhibition at 8.3 ppm came to 0% and the inhibition at 25 ppm is under 50%. Moreover, the pest or weed control at 600 µg/mL with armyworm (72 h, 600 mg/L, read-out: Insecticidal activity against armyworm (%)) was determined as 17%. In the assay with corn rust (setting [2]), the pest or weed control at 6.25 µg/mL is 0%, the pest or weed control at 25 µg/mL worked out at 0%, the pest or weed control at 100 µg/mL was 30% and the pest or weed control at 400 µg/mL amounted to 85%.
Take `Cc1ncnc(NCCc2ccc(Oc3ccc(C(F)(F)F)cn3)cc2)c1Cl` [Compound I-22]: in the assay with rice blast, the inhibition at 8.3 ppm lay within 80 to 99%. The “control (test results against diamond back moth)” value in the assay with Diamond back moth worked out at 100%. Further, the “Insecticidal activity against peach aphid (%)” value in assay [1] (1.25 mg/L), in assay [1] (2.5 mg/L), in assay [1] (5 mg/L), in assay [1] (10 mg/L), in assay [1] (100 mg/L) and in assay [1] (600 mg/L) was 100% in each case. Besides, the “control (test results against green peach aphid)” value in assay [1] (setting [3]) was 100%. In addition, the pest or weed control at 100 ppm in assay [1] (setting [4]) amounted to 100%. This molecule showed a pest or weed control at 600 ppm in assay [1] (setting [5]) of 100%. In addition, the “Insecticidal activity against carmine spider mite (% )” value with carmine spider mite (5 mg/L) is 59%; with carmine spider mite (10 mg/L, contrastive test), 74%; in the assay with carmine spider mite (100 mg/L, contrastive test), 100%; in the assay with carmine spider mite (600 mg/L, contrastive test), 100%. Moreover, the “control against carmine spider mite” value in the assay with carmine spider mite (setting [6]) and in the assay with carmine spider mite (setting [7]) was 100% each time. Also, the “protectant activity against corn rust in vivo” value in the assay with corn rust (6.25 ppm) and in the assay with corn rust (100 ppm) was 100% in each case. Further, the pest or weed control at 0.4 µg/mL in the assay on corn rust (Zea mays, 168 h, read-out: control effect against corn rust (%), 0.4 mg/L, protectant activity) was determined as 20%. Moreover, the pest or weed control at 1.6 µg/mL was 50% in the assay with corn rust (Zea mays, 168 h, read-out: control effect against corn rust (%), 1.6 mg/L, protectant activity) and 15% in the assay on wheat powdery mildew (Triticum aestivum, 168 h, read-out: control effect against wheat powdery mildew (%), 1.6 mg/L, protectant activity). Further, the pest or weed control at 6.25 µg/mL in the assay on corn rust (setting [2]) stood at 100%; in the assay with wheat powdery mildew (Triticum aestivum, 168 h, read-out: control effect against wheat powdery mildew (%), 6.25 mg/L, protectant activity) it was 100%; with cucumber downy mildew (Cucumis sativus, 168 h, read-out: control effect against cucumber downy mildew (%), 6.25 mg/L, protectant activity), 100%. Besides, the pest or weed control at 25 µg/mL in the assay with corn rust (setting [2]) turned out to be 100%; in the assay on wheat powdery mildew (Triticum aestivum, 168 h, read-out: control effect against wheat powdery mildew (%), 25 mg/L, protectant activity), 100%; in the assay on cucumber downy mildew (Cucumis sativus, 168 h, read-out: control effect against cucumber downy mildew (%), 25 mg/L, protectant activity), 100%. The pest or weed control at 100 µg/mL in the assay with corn rust (setting [2]) was 100%; in the assay with wheat powdery mildew (Triticum aestivum, 168 h, read-out: control effect against wheat powdery mildew (%), 100 mg/L, protectant activity), 100%; in the assay with cucumber downy mildew (Cucumis sativus, 168 h, read-out: control effect against cucumber downy mildew (%), 100 mg/L, protectant activity), 100%. For the same molecule, the pest or weed control at 400 µg/mL with corn rust (setting [2]) was 100%; in the assay on wheat powdery mildew (Triticum aestivum, 168 h, read-out: control effect against wheat powdery mildew (%), 400 mg/L, protectant activity), 100%; in the assay on cucumber downy mildew (Cucumis sativus, 168 h, read-out: control effect against cucumber downy mildew (%), 400 mg/L, protectant activity), 100%. Also, the pest or weed control at 25 ppm came out at 100% in the assay on corn rust (Zea mays, 168 h); 100% in the assay with wheat powdery mildew (Triticum aestivum, 168 h, read-out: protectant activity against wheat powdery mildew in vivo, 25 ppm); 100% in the assay with cucumber downy mildew (Cucumis sativus, 168 h, read-out: protectant activity against cucumber downy mildew in vivo, 25 ppm). Further, the pest or weed control at 400 ppm with corn rust (Zea mays, 168 h) stood at 100%; in the assay on wheat powdery mildew (Triticum aestivum, 168 h), 100%; with cucumber downy mildew (Cucumis sativus, 168 h), 100%. Besides, the “protectant activity against wheat powdery mildew in vivo” value with wheat powdery mildew (6.25 ppm) and in the assay with wheat powdery mildew (100 ppm) was 100% each time. Also, the “protectant activity against cucumber downy mildew in vivo” value with cucumber downy mildew (100 ppm) worked out at 100%. Besides, the pest or weed control at 3.125 µg/mL with cucumber downy mildew (Cucumis sativus, 168 h, read-out: control effect against cucumber downy mildew (%), 3.125 mg/L, protectant activity) was determined as 85%. Further, the pest or weed control at 12.5 µg/mL in the assay on cucumber downy mildew (Cucumis sativus, 168 h, read-out: control effect against cucumber downy mildew (%), 12.5 mg/L, protectant activity) was 100%. Further, the pest or weed control at 50 µg/mL in the assay on cucumber downy mildew (Cucumis sativus, 168 h, read-out: control effect against cucumber downy mildew (%), 50 mg/L, protectant activity) amounted to 100%. For the same molecule, the pest or weed control at 6.25 ppm in the assay with cucumber downy mildew (Cucumis sativus, 168 h, read-out: protectant activity against cucumber downy mildew in vivo, 6.25 ppm) amounted to 100%. Moreover, the pest or weed control at 12.5 ppm in the assay on cucumber downy mildew (Cucumis sativus, 168 h, read-out: protectant activity against cucumber downy mildew in vivo, 12.5 ppm) is 100%. The pest or weed control at 50 ppm in the assay with cucumber downy mildew (Cucumis sativus, 168 h) is 100%.
Take `Cc1ncnc(NCCc2ccc(Oc3ncc(C(F)(F)Cl)cc3Cl)cc2)c1Cl` [Compound I-483]: the inhibition at 0.1 ppm in the assay on rice blast (read-out: inhibition rate against rice blast, 0.1 ppm, in vitro) came to 100%. Further, the inhibition at 0.3 ppm in the assay on rice blast (read-out: inhibition rate against rice blast, 0.3 ppm, in vitro) was 100%. The inhibition at 0.9 ppm with rice blast (read-out: inhibition rate against rice blast, 0.9 ppm, in vitro) was determined as 100%. Also, the inhibition at 2.8 ppm in the assay with rice blast (read-out: inhibition rate against rice blast, 2.8 ppm, in vitro) was determined as 100%. For the same molecule, in the assay with rice blast, the inhibition at 8.3 ppm is 100%. The inhibition at 25 ppm in the assay on rice blast was determined as 100%. In addition, the pest or weed control at 100 ppm in assay [1] (setting [4]) is 100%; with carmine spider mite (Tetranychus cinnabarinus, 72 h, 100 ppm, mortality after 72 hrs), 80 to 99%; with wheat powdery mildew (Triticum aestivum, 168 h, read-out: protectant activity against wheat powdery mildew in vivo, 100 ppm) it was 80 to 99%. The pest or weed control at 600 ppm (in assay [1] (setting [5]); in the assay on carmine spider mite (setting [8])) was 100% throughout. Besides, the pest or weed control at 400 ppm is 100% in the assay on corn rust (Zea mays, 168 h); 80 to 99% with wheat powdery mildew (Triticum aestivum, 168 h); 100% in the assay on cucumber downy mildew (Cucumis sativus, 168 h).
For `Cc1ncnc(NCCc2ccc(Oc3ccc(C(F)(F)F)cn3)cc2)c1Cl` [Compound I-6763], in the assay on rice blast, the inhibition at 25 ppm is 100%. The “control (test results against armyworm)” value with armyworm (600 ppm, mortality after 72 h) was 100%. The same molecule yielded a pest or weed control at 100 ppm in the assay with armyworm (72 h, 100 ppm, mortality after 72 h) of 100%. Also, the “control (test results against green peach aphid)” value in assay [1] (setting [3]) is reported as 100%; in assay [1] (100 ppm, death rate after 48 hrs), 100%; in assay [1] (600 ppm, death rate after 48 hrs), 100%. In addition, the pest or weed control at 5 ppm in assay [1] (Myzus persicae, foliar, 48 h, 5 ppm, death rate after 48 hrs) amounted to 100%. Also, the “control against carmine spider mite” value in the assay with carmine spider mite (setting [6]) and with carmine spider mite (setting [7]) was 100% each time. Also, the “protectant activity against corn rust in vivo” value in the assay with corn rust (100 ppm) and in the assay on corn rust (400 ppm) was 100% in each case. Further, the “protectant activity against wheat powdery mildew in vivo” value with wheat powdery mildew (100 ppm) and with wheat powdery mildew (400 ppm) was 100% each time.
In the case of `CCOC(=O)c1ccc(Oc2ccc(CCNc3nc(C)nc(CC)c3Cl)cc2)nc1` [Compound I-6796], the inhibition at 25 ppm in the assay on rice blast lay within 80 to 99%. The same molecule had a pest or weed control at 10 ppm in assay [1] (Myzus persicae, foliar, 48 h, 10 ppm, death rate after 48 hrs) of 100%. The pest or weed control at 100 ppm was 100% in assay [1] (setting [4]); 100% in the assay on corn rust (Zea mays, 168 h, read-out: protectant activity against corn rust in vivo, 100 ppm); 80 to 99% in the assay on cucumber downy mildew (Cucumis sativus, 168 h, read-out: protectant activity against cucumber downy mildew in vivo, 100 ppm). The pest or weed control at 600 ppm was 100% in assay [1] (setting [5]) and 80 to 99% with carmine spider mite (setting [8]). In addition, in the assay on corn rust (Zea mays, 168 h, read-out: protectant activity against corn rust in vivo, 6.25 ppm), the pest or weed control at 6.25 ppm was in the range of 80 to 99%. Moreover, in the assay on corn rust (Zea mays, 168 h), the pest or weed control at 25 ppm was 80 to 99%. Also, the pest or weed control at 400 ppm in the assay with corn rust (Zea mays, 168 h) worked out at 100%; with wheat powdery mildew (Triticum aestivum, 168 h), 100%; in the assay with cucumber downy mildew (Cucumis sativus, 168 h), 100%. Further, the pest or weed control at 50 ppm with cucumber downy mildew (Cucumis sativus, 168 h) fell in the range of 80 to 99%.
